ChEMBL document CHEMBL1139689, “Discovery and preliminary structure-activity relationship studies of novel benzotriazine based compounds as Src inhibitors” (Bioorg Med Chem Lett, 2006)

What was measured:
[1] = target: Proto-oncogene tyrosine-protein kinase Src (Homo sapiens, UniProt P12931)
[2] = target: Tyrosine-protein kinase Lyn (Homo sapiens, UniProt P07948); assay: Inhibition of Lyn
[3] = target: Tyrosine-protein kinase Fyn (Homo sapiens, UniProt P06241); assay: Inhibition of Fyn
[4] = target: Tyrosine-protein kinase Blk (Homo sapiens, UniProt P51451); assay: Inhibition of Blk
Sequence of Tyrosine-protein kinase Blk (P51451 whole entry): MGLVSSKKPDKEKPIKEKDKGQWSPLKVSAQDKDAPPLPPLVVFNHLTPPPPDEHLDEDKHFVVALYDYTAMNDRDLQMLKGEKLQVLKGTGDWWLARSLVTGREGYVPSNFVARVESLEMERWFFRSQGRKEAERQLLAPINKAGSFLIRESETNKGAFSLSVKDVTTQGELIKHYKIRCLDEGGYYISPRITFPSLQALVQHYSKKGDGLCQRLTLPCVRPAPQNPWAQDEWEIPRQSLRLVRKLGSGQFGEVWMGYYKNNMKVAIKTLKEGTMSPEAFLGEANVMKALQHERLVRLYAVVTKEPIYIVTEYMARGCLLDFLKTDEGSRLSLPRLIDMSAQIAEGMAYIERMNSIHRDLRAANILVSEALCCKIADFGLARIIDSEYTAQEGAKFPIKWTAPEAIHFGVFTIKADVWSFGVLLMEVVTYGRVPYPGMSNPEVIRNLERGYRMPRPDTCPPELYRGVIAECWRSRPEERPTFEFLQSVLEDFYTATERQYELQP

Angiopoietin-1 receptor = Angiopoietin-1 receptor (Homo sapiens, UniProt Q02763); assay: Inhibition of Tie2
Sequence of Angiopoietin-1 receptor (Q02763 whole entry): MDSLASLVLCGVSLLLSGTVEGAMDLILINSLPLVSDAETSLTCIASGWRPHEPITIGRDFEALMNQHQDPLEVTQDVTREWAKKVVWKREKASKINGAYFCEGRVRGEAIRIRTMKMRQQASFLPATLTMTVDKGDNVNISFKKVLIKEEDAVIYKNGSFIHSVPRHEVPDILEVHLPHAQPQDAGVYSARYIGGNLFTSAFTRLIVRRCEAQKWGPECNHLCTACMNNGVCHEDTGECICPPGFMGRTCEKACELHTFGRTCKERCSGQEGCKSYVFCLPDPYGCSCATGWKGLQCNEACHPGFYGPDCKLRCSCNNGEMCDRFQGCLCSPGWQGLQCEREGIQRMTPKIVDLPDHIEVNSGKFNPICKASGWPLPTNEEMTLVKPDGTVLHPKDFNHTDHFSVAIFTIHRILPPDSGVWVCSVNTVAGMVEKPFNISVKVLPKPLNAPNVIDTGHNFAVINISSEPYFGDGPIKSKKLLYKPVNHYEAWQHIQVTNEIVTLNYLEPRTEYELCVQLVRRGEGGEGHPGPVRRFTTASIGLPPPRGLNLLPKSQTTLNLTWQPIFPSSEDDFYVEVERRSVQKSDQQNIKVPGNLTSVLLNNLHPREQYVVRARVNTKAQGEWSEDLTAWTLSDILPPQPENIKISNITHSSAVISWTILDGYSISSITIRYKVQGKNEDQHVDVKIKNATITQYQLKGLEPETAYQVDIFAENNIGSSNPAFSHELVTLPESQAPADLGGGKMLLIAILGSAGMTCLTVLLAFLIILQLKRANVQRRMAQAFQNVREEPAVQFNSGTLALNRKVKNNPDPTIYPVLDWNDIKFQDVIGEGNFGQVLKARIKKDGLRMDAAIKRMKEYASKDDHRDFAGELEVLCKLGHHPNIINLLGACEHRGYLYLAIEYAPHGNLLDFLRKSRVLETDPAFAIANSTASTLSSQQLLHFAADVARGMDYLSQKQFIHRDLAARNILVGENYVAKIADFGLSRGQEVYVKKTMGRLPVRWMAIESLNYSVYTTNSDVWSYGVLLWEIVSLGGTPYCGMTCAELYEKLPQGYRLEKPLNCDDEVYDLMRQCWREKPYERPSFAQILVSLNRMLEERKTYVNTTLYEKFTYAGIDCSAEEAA

[5] = target: Vascular endothelial growth factor receptor 2 (Homo sapiens, UniProt P35968); assay: Inhibition of VEGFR2
Sequence of Vascular endothelial growth factor receptor 2 (P35968 whole entry): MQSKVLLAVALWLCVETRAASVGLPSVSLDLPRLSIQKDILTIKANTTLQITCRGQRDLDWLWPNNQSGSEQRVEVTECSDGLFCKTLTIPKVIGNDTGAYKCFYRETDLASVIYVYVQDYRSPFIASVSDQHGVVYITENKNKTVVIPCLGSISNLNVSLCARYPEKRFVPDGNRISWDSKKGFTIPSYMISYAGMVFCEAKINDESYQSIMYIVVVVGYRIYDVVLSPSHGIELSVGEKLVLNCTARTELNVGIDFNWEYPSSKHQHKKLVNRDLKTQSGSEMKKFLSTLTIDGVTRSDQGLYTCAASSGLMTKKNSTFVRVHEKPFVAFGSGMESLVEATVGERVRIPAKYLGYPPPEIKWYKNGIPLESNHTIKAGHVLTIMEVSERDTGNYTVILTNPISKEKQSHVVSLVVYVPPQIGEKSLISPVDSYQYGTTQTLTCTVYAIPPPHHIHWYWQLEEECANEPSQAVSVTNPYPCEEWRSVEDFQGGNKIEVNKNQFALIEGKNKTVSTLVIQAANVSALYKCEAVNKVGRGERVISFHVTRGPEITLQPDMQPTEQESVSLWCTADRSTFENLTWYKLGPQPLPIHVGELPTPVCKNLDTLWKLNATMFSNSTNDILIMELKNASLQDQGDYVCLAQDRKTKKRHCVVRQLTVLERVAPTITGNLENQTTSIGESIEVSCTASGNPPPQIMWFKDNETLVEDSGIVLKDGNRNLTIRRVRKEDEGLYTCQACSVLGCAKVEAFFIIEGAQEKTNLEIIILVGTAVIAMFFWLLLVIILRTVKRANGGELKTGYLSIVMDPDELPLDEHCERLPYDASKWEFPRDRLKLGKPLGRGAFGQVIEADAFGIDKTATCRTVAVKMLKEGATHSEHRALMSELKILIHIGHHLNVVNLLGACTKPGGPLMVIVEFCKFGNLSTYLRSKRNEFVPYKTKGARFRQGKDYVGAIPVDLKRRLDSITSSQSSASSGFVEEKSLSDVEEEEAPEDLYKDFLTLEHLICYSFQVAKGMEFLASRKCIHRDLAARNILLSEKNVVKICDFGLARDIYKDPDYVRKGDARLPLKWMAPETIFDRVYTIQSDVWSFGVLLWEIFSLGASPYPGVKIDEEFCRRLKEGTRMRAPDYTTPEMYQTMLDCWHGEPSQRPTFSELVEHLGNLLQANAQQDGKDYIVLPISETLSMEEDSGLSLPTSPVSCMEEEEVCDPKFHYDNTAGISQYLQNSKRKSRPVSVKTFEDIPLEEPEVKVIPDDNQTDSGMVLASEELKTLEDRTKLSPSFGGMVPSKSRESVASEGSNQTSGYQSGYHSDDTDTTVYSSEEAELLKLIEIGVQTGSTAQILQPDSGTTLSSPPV

[6] = target: Serine/threonine-protein kinase RAF and Dual specificity mitogen-activated protein kinase kinase 1 (Raf/MEK) (Homo sapiens, UniProt P04049+Q02750); assay: Inhibition of Raf1-MEK1; assay type: protein assay
[7] = target: Tyrosine-protein kinase ABL1 (Homo sapiens, UniProt P00519); assay: Inhibition of Abl
[8] = target: Tyrosine-protein kinase ABL1 (Homo sapiens, UniProt P00519, T315I); assay: Inhibition of Abl T315I mutant
[9] = target: RAF proto-oncogene serine/threonine-protein kinase (Homo sapiens, UniProt P04049); assay: Inhibition of Raf1 kinase
[10] = target: Tyrosine-protein kinase CSK (Homo sapiens, UniProt P41240); assay: Inhibition of CSK
Sequence of Tyrosine-protein kinase CSK (P41240 whole entry): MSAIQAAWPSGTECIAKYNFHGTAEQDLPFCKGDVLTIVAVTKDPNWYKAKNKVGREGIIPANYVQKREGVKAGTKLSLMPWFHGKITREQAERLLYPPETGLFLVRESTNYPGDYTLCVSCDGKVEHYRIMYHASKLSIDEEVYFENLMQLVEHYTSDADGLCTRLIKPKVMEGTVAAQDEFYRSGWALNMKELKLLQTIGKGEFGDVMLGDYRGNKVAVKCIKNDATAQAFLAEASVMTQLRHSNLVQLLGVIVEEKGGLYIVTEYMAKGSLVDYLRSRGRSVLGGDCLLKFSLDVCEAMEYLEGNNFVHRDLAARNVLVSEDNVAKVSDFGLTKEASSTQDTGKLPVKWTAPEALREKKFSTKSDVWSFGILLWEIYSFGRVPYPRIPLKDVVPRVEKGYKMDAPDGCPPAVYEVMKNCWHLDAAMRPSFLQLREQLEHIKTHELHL

[11] = target: Ribosomal protein S6 kinase beta-1 (Homo sapiens, UniProt P23443); assay: Inhibition of p70S6K

Sequence of Proto-oncogene tyrosine-protein kinase Src (P12931 2-536 limits assumed): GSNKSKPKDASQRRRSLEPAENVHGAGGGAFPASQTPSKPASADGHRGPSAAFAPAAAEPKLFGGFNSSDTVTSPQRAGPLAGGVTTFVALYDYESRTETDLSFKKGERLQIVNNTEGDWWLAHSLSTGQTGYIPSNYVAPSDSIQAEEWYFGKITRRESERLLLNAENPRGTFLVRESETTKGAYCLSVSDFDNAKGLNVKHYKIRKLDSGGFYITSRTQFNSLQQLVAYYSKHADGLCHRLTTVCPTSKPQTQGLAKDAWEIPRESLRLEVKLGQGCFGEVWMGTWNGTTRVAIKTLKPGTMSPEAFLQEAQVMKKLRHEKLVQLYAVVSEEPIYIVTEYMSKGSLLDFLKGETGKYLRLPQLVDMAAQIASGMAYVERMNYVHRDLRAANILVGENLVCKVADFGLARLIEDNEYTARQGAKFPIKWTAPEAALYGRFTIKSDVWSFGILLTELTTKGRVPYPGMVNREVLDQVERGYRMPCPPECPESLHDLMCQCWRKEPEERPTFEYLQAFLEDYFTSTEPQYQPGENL
Sequence of Tyrosine-protein kinase Lyn (P07948 whole entry): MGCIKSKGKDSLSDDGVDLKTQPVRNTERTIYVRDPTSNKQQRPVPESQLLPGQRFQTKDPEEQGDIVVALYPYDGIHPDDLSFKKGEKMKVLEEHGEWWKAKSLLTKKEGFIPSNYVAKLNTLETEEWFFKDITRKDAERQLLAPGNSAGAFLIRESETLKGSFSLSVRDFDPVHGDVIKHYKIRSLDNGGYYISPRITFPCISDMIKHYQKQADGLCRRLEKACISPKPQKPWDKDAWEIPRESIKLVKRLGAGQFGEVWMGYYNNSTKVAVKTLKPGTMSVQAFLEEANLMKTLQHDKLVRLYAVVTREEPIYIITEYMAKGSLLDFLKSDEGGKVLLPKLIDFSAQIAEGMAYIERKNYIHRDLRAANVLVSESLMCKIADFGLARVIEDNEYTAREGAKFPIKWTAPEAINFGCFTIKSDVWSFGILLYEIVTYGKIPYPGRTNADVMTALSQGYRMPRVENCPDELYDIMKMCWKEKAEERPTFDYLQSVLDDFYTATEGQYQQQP
Sequence of Tyrosine-protein kinase Fyn (P06241 whole entry): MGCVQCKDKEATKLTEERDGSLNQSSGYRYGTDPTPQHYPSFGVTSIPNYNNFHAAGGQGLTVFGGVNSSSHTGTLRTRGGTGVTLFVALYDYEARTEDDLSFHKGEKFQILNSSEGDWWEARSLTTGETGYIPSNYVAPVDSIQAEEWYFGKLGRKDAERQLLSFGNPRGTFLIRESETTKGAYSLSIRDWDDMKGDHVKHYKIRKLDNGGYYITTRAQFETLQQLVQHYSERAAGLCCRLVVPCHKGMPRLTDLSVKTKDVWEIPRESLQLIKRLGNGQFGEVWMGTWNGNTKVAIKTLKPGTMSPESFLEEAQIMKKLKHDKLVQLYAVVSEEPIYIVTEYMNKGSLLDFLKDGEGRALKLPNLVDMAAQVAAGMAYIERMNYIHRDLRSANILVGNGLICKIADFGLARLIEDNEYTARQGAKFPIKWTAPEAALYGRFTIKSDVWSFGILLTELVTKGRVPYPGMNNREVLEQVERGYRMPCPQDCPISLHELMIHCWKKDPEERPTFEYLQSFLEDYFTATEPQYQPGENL

Row | SMILES | IC50 [1] | further results
1 | Cc1cccc(C)c1-c1cc(C)c2nc(Nc3cccc(S(=O)(=O)N4CCNCC4)c3)nnc2c1 | 0.48 µM | 
2 | Cc1cc(-c2c(Cl)cccc2Cl)cc2nnc(N)nc12 | 3.6 µM | 
3 | Cc1cc(C)c(-c2cc(C)c3nc(Nc4ccccc4)nnc3c2)c(C)c1 | > 50 µM | 
4 | Cc1cccc(C)c1-c1cc(C)c2nc(Nc3cccc4cccnc34)nnc2c1 | > 50 µM | 
5 | Cc1cccc(C)c1-c1cc(C)c2nc(N)nnc2c1 | 7.4 µM | 
6 | Cc1cc(-c2cc(O)ccc2Cl)cc2nnc(N)nc12 | 1.5 µM | 
7 | CCOC1CN(C)CCN1c1cccc(Nc2nnc3cc(-c4c(C)cccc4C)cc(C)c3n2)c1 (stereo not given) | 0.041 µM | 
8 | Nc1nnc2cc(-c3ccccc3)ccc2n1 | > 50 µM | 
9 | Cc1cccc(Nc2nnc3cc(-c4c(C)cccc4C)cc(C)c3n2)c1C | > 50 µM | 
10 | CCN(CC)CCOc1ccc(Nc2nnc3cc(-c4c(C)cccc4C)cc(C)c3n2)cc1 | 0.01 µM | 
11 | Cc1cccc(C)c1-c1cc(C)c2nc(Nc3ccccn3)nnc2c1 | > 50 µM | 
12 | CCCCc1ccc(Nc2nnc3cc(-c4c(C)cccc4C)cc(C)c3n2)cc1 | > 50 µM | 
13 | Cc1cccc(C)c1-c1cc(C)c2nc(Nc3ccncc3)nnc2c1 | 0.04 µM | 
14 | CC(=O)Nc1nnc2cc(-c3c(C)cccc3C)cc(C)c2n1 | > 50 µM | 
15 | Cc1cccc(C)c1-c1ccc2nc(N)nnc2c1 | 2.2 µM | 
16 | Cc1cccc(C)c1-c1cc(C)c2nc(Nc3ccccc3)nnc2c1 | 0.41 µM | 
17 | Cc1ccc(C)c(Nc2nnc3cc(-c4c(C)cccc4C)cc(C)c3n2)c1 | > 50 µM | 
18 | CCCOC1CN(C)CCN1c1cccc(Nc2nnc3cc(-c4c(C)cccc4C)cc(C)c3n2)c1 (stereo not given) | 0.04 µM | 
19 | Cc1cc(-c2ccccc2Cl)cc2nnc(N)nc12 | > 50 µM | 
20 | COc1ccccc1Nc1nnc2cc(-c3c(C)cccc3C)cc(C)c2n1 | > 50 µM | 
21 | Nc1nnc2cc(-c3ccc4c(c3)OCO4)ccc2n1 | 12 µM | 
22 | Nc1nnc2cc(-c3ccc4ccccc4c3)ccc2n1 | 5.2 µM | 
23 | CCOC1CN(c2ccc(Nc3nnc4cc(-c5c(C)cccc5C)cc(C)c4n3)cc2)CCO1 (stereo not given) | 0.032 µM | 
24 | Cc1cccc(C)c1-c1cc(C)c2nc(Nc3ccc(OCCN4CCCC4)cc3)nnc2c1 |  | IC50 [2]: 0.021 µM; IC50 [3]: 0.023 µM; IC50 [4]: 1.32 µM; IC50 (Angiopoietin-1 receptor): 0.678 µM; IC50 [5]: 0.555 µM; IC50 [6]: 0.069 µM; IC50 [7]: 0.02 µM; IC50 [8]: 5.99 µM; IC50 [9]: 0.068 µM; IC50 [10]: 0.659 µM; IC50 [11]: 2.71 µM
25 | Cc1ccc(Nc2nnc3cc(-c4c(C)cccc4C)cc(C)c3n2)c(C)c1 | > 50 µM | 
